What was measured:
lettuce = experiment: Effect on development of sprouts, agar medium in Petri dishes; format: in vivo; parameters: Germination capacity, lettuce: unit not given here; conditions: for Plant parts length, lettuce root / Plant parts length, lettuce stalk: 7 days
Experimental: (§1) The effect of the preparation was studied for 7 days under laboratory conditions on lettuce and oats plants.
(§2) The standards used in the tests were chlorocholine chloride whose structure is close to the studied chemical compound and heteroauxin phytohormone. Experiments on lettuce and oats growing in the presence of the above substances at a concentration of from 0.1 to 0.00001 wt.% were performed in Petri dishes with the use of agar medium as a substrate.
(§3) The seeds were placed into Petri dishes on solidified agar containing the test substance in the concentration indicated. The seeds germinated in a thermostat for 3 days at a temperature of from 22° to 24° C. Petri dishes with the sprouts were then placed for further growth into an exhausting hood with illumination for 4 days, whereafter the length of the roots, stalks and leaves of the sprouts was measured.

oats = experiment: as above; format: in vivo; parameters: Germination capacity, oats: unit not given here; conditions: for Plant parts length, oats leaf / Plant parts length, oats root: 7 days
Experimental: as §1, §2, §3

Rats [1] = conditions: cited from earlier work
Acute toxicity test [2] = format: in vivo; conditions: rat, in vivo, rats
Experimental: (§4) Bis-(N,N-dimethyl-N-carbodecyloxymethyl-N-ethyleneammonium)-sulphide dichloride was tested for toxicity in an acute test on rats of both sexes with an average mass of 200 to 250 g and on white mice of both sexes with an average mass of 22 to 25 g with enteral and intraperitoneal administrations. Aqueous solutions of the above preparation (from 10 to 5000 mg per kg of animal weight) were used for enteral and intraperitoneal administration. Each dosage was tried on five animals. Animal death rate was registered 24 hours after the administration of the above solutions.

Rats [3] = experiment: Acute toxicity test; format: in vivo; conditions: 24 hours
Experimental: as §4

[4] = system: staphylococci, Escherichia coli, and intestinal group microorganisms; experiment: Antimicrobial action, overall; format: cell-based; conditions: analysis of the test results
Experimental: (§5) Antimicrobial properties of said preparation were investigated by a classical method of series dilutions in standard liquid nutrient media.
(§6) The activity of the above preparation was tested by its action on staphylococci, Escherichia coli, and intestinal group microorganisms.

Proteus morgani = experiment: Antimicrobial activity, series dilutions in liquid nutrient media; format: cell-based; conditions: 4 strains
Experimental: as §5, §6

Staphylococcus albus = experiment: as above; format: cell-based; conditions: 20 strains
Experimental: as §5, §6

Staphylococcus aureus = experiment: as above; format: cell-based; conditions: 20 strains
Experimental: as §5, §6

Proteus vulgaris = experiment: as above; format: cell-based; conditions: 2 strains
Experimental: as §5, §6

Escherichia coli = experiment: as above; format: cell-based; conditions: 10 strains
Experimental: as §5, §6

Shigella sonnei = experiment: as above; format: cell-based; conditions: 7 strains
Experimental: as §5, §6

Salmonella sp. = experiment: as above; format: cell-based; conditions: 7 strains
Experimental: as §5, §6

Rats [5] = experiment: Toxicity (LD50) compared with chlorocholine chloride; format: in vivo; conditions: versus chlorocholine chloride
calves = experiment: Chronic toxicity test, intravenous; format: in vivo; conditions: 10 mg per kg daily for 30 days
Text: Test group consisted of 10 calves, the other 10 calves to which the above preparation was not prescribed making up a control group. The calves of both groups were kept in the same conditions. General state and behaviour of the calves, rate of gain were controlled and peripheric blood counts (hemoglobin, erythrocytes, leucocytes, thrombocytes, differential blood count) were made daily during the test. To determine the functional state of liver, kidneys, and pancreas, certain biochemical characteristics of the urine (protein, sugar, and biliary pigments content) and blood (sugar, cholesterol, bilirubin, urea, alkaline phosphatase, and chlorides content) were studied.
At the end of the test period the test group animals were killed and their internal organs were studied by macro- and microscopic techniques.

[6] = Stability of aqueous solutions / retention of antimicrobial activity; format: physicochemical
Text: Aqueous solutions of the preparation were stable.

Solubility = format: physicochemical
Acute toxicity test [7] = format: in vivo, white mice; conditions: mouse, in vivo, mice, 24 hours
Experimental: as §4

Mice = experiment: Acute toxicity test; format: in vivo, white mice; conditions: for LD100: mice, 24 hours
Experimental: as §4

[8] = Treatment of inflammatory diseases of the middle ear; format: in vivo, men; conditions: for Recovery with comparator solutions: in a great number of cases; for Irrigations of the tympanic cavity required, relative to the preparation: solutions, for the same purpose
Experimental: was tested in treating inflammatory diseases of the middle ear in men: acute otitis and antritis media purulenta, chronic purulent mesotympanitis, and chronic purulent epitympanitis.
The treatment was applied to 65 patients.
The treatment procedure consisted in thorough and copious irrigation (with the help of Hartmann's cannula or blunt-ended needle) of the middle ear, attic, and Eustachian tube for maximum removal of purulent exudate and cholesteatoma masses.

[9] = read-out: Average bactericidal concentration
[10] = read-out: Average bacteriostatic concentration

Compound: C[N+](C)(C)CCCl.[Cl-] [Chlorocholine chloride]
- Germination capacity, lettuce (lettuce; 0.0001 wt. %): 98
- Plant parts length, lettuce root (lettuce; 0.0001 wt. %): 104
- Plant parts length, lettuce stalk (lettuce; 0.0001 wt. %): 98
- Germination capacity, lettuce (lettuce; 0.001 wt. %): 94
- Plant parts length, lettuce root (lettuce; 0.001 wt. %): 102
- Plant parts length, lettuce stalk (lettuce; 0.001 wt. %): 110
- Germination capacity, lettuce (lettuce; 0.01 wt. %): 94
- Inhibition of root development (lettuce; 0.01 wt. %): does not inhibit root development
- Plant parts length, lettuce root (lettuce; 0.01 wt. %): 101
- Plant parts length, lettuce stalk (lettuce; 0.01 wt. %): 99
- Germination capacity, oats (oats; 0.0001 wt. %): 91
- Plant parts length, oats leaf (oats; 0.0001 wt. %): 94
- Plant parts length, oats root (oats; 0.0001 wt. %): 102
- Germination capacity, oats (oats; 0.001 wt. %): 99
- Plant parts length, oats leaf (oats; 0.001 wt. %): 97
- Plant parts length, oats root (oats; 0.001 wt. %): 92
- Germination capacity, oats (oats; 0.01 wt. %): 98
- Plant parts length, oats leaf (oats; 0.01 wt. %): 96
- Plant parts length, oats root (oats; 0.01 wt. %): 94
- LD50 (Rats [1]): 250 mg/kg

Compound: O=C(O)Cc1c[nH]c2ccccc12 [Heteroauxine]
- Germination capacity, lettuce (lettuce; 0.0001 wt. %): 81
- Plant parts length, lettuce root (lettuce; 0.0001 wt. %): 88
- Plant parts length, lettuce stalk (lettuce; 0.0001 wt. %): 92
- Germination capacity, lettuce (lettuce; 0.001 wt. %): 55
- Plant parts length, lettuce root (lettuce; 0.001 wt. %): 27
- Plant parts length, lettuce stalk (lettuce; 0.001 wt. %): 24
- Germination capacity, lettuce (lettuce; 0.01 wt. %): 0
- Plant parts length, lettuce root (lettuce; 0.01 wt. %): 0
- Plant parts length, lettuce stalk (lettuce; 0.01 wt. %): 0
- Germination capacity, oats (oats; 0.0001 wt. %): 100
- Plant parts length, oats leaf (oats; 0.0001 wt. %): 92
- Plant parts length, oats root (oats; 0.0001 wt. %): 88
- Germination capacity, oats (oats; 0.001 wt. %): 102
- Plant parts length, oats leaf (oats; 0.001 wt. %): 67
- Plant parts length, oats root (oats; 0.001 wt. %): 28
- Germination capacity, oats (oats; 0.01 wt. %): 84
- Plant parts length, oats leaf (oats; 0.01 wt. %): 35
- Plant parts length, oats root (oats; 0.01 wt. %): 19

Compound: CCCCCCCCCCOC(=O)C[N+](C)(C)CCSCC[N+](C)(C)CC(=O)OCCCCCCCCCC [bis-(N,N-dimethyl-N-carbodecyloxymethyl-N-ethyleneammonium)-sulphide dichloride]
- LD50 at 24 h (Acute toxicity test [2]; ip, intraperitoneal): 67.7 mg/kg
- LD50 at 24 h (Acute toxicity test [2]; po, enteral): 2660 mg/kg
- LD100 (Rats [3]; enteral): 3500 mg/kg
- LD100 (Rats [3]; intraperitoneal): 80.0 mg/kg
- Antimicrobial action, overall [4]: strong antimicrobial action
- Germination capacity, lettuce (lettuce; 0.00001 wt. %): 86
- Plant parts length, lettuce root (lettuce; 0.00001 wt. %): 91
- Plant parts length, lettuce stalk (lettuce; 0.00001 wt. %): 91
- Germination capacity, lettuce (lettuce; 0.0001 wt. %): 89
- Plant parts length, lettuce root (lettuce; 0.0001 wt. %): 96
- Plant parts length, lettuce stalk (lettuce; 0.0001 wt. %): 99
- Germination capacity, lettuce (lettuce; 0.001 wt. %): 100
- Plant parts length, lettuce root (lettuce; 0.001 wt. %): 88
- Plant parts length, lettuce stalk (lettuce; 0.001 wt. %): 91
- Germination capacity, lettuce (lettuce; 0.01 wt. %): 34
- Plant parts length, lettuce root (lettuce; 0.01 wt. %): 15
- Plant parts length, lettuce stalk (lettuce; 0.01 wt. %): 38
- Germination capacity, lettuce (lettuce; 0.1 wt. %): 0
- Plant parts length, lettuce root (lettuce; 0.1 wt. %): 2
- Plant parts length, lettuce stalk (lettuce; 0.1 wt. %): 0
- Herbicidal action (lettuce; 0.1 wt.%, dicotyledonous plants): selective herbicide
- Phytoncidal action (lettuce; lettuce (dicotyledonous)): more phytoncidal
- Germination capacity, oats (oats; 0.00001 wt. %): 91
- Plant parts length, oats leaf (oats; 0.00001 wt. %): 105
- Plant parts length, oats root (oats; 0.00001 wt. %): 100
- Germination capacity, oats (oats; 0.0001 wt. %): 87
- Plant parts length, oats leaf (oats; 0.0001 wt. %): 99
- Plant parts length, oats root (oats; 0.0001 wt. %): 86
- Germination capacity, oats (oats; 0.001 wt. %): 87
- Plant parts length, oats leaf (oats; 0.001 wt. %): 96
- Plant parts length, oats root (oats; 0.001 wt. %): 88
- Germination capacity, oats (oats; 0.01 wt. %): 86
- Plant parts length, oats leaf (oats; 0.01 wt. %): 93
- Plant parts length, oats root (oats; 0.01 wt. %): 54
- Germination capacity, oats (oats; 0.1 wt. %): 87
- Plant parts length, oats leaf (oats; 0.1 wt. %): 55
- Plant parts length, oats root (oats; 0.1 wt. %): 6
- Inhibition of growth of roots versus leaves (oats; oats (monocotyledonous)): more strongly inhibits the growth of roots than that of leaves
- MBC (Proteus morgani; [9]): 50.7 µg/mL
- MIC (Proteus morgani; [10]): 50.7 µg/mL
- MBC (Staphylococcus albus; [9]): 1.67 µg/mL
- MIC (Staphylococcus albus; [10]): 0.6 µg/mL
- MBC (Staphylococcus aureus; [9]): 2.63 µg/mL
- MIC (Staphylococcus aureus; [10]): 0.76 µg/mL
- MBC (Proteus vulgaris; [9]): 62.5 µg/mL
- MIC (Proteus vulgaris; [10]): 62.5 µg/mL
- MBC (Escherichia coli; [9]): 6.4 µg/mL
- MIC (Escherichia coli; [10]): 3.9 µg/mL
- MBC (Shigella sonnei; [9]): 28.4 µg/mL
- MIC (Shigella sonnei; [10]): 5.85 µg/mL
- MBC (Salmonella sp.; [9]): 31.2 µg/mL
- MIC (Salmonella sp.; [10]): 31.2 µg/mL
- Toxicity compared with chlorocholine chloride (Rats [5]): much lower
- Pathologic changes at autopsy, macro- and microscopic study (calves): no pathologic changes
- Changes in the calves under chronic test conditions (calves; 0.2 wt.% in sodium chloride solution): did not cause significant changes
- Activity after storage of solutions ([6]; 1% and 0.1% solutions, 6 months): did not lose its activity
- Stability of aqueous solutions ([6]; aqueous solutions): stable
- Antimicrobial activity as a function of pH ([6]; pH 5 to 8): remains unchanged
- Antimicrobial activity after autoclaving ([6]; single and double autoclaving, 60 minutes at 2.5 atm): did not alter the antimicrobial activity
- Solubility in diethyl ether (Solubility; diethyl ether): insoluble
- Solubility in lower alcohols (Solubility; lower alcohols): soluble
- Solubility in water (Solubility; water): soluble
- LD50 at 24 h (Acute toxicity test [7]; ip, intraperitoneal): 54.1 mg/kg
- LD50 at 24 h (Acute toxicity test [7]; po, enteral): 1220 mg/kg
- Toxicity group, overall (Mice; analysis of the test results (mice, rats, calves)): low-toxic
- LD100 (Mice; enteral): 2500 mg/kg
- LD100 (Mice; intraperitoneal): 70.0 mg/kg

Compound: CC1(C)S[C@@H]2[C@H](NC(=O)Cc3ccccc3)C(=O)N2[C@H]1C(=O)O [penicillin]
- Recovery with comparator solutions [8]: did not result in recovery
- Irrigations of the tympanic cavity required, relative to the preparation [8]: twice as many or even more

Compound: [H]/N=C(/N)N[C@H]1[C@H](O)[C@@H](O)[C@H](O[C@@H]2O[C@@H](C)[C@](O)(C=O)[C@H]2O[C@@H]2O[C@@H](CO)[C@H](O)[C@@H](O)[C@@H]2NC)[C@@H](N/C(N)=N\[H])[C@@H]1O [streptomycin]
- Recovery with comparator solutions [8]: did not result in recovery
- Irrigations of the tympanic cavity required, relative to the preparation [8]: twice as many or even more
